Measurements published in ChEMBL document CHEMBL3868619, “Synthesis and biological assessment of novel N-(hydroxy/methoxy)alkyl β-enaminone curcuminoids” (Bioorg Med Chem Lett, 2016).
In brackets after ≈: the same amount, converted by molar mass.

Legend:
EA.hy 926 [1] = test: Induction of ROS generation in human EAhy926 cells at 10 uM using DCFH-DA by fluorescence assay relative to control; type: functional
[2] = Solubility of the compound in dimethylformamide; type: physicochemical
[3] = Cytotoxicity against human HT-29 cells assessed as decrease in cell viability after 48 hrs by MTT assay; type: functional, cell-based; details: HT-29, 48 h
[4] = Aqueous solubility of the compound in sodium phosphate buffer at pH 6.8 after 24 hrs by shake flask method; type: physicochemical
[5] = Cytotoxicity against human HepG2 cells assessed as decrease in cell viability after 48 hrs by MTT assay; type: functional, cell-based; details: HepG2, 48 h
EA.hy 926 [6] = test: Induction of ROS generation in human EAhy926 cells at 1 uM using DCFH-DA by fluorescence assay relative to control; type: functional
[7] = Cytotoxicity against human EAhy926 cells assessed as cell viability at 100 uM after 48 hrs by MTT assay relative to control; type: toxicity, cell-based, EA.hy 926; details: EA.hy926 cells, read-out: Activity
HepG2 [8] = test: Induction of ROS generation in human HepG2 cells at 1 uM using DCFH-DA by fluorescence assay relative to control; type: functional
[9] = Induction of ROS generation in CHOK1 cells at 10 uM using DCFH-DA by fluorescence assay relative to control; type: cell-based, Cricetulus griseus; details: chinese hamster, cho-k1, 10 µM
Caco-2 [10] = test: Induction of ROS generation in human Caco2 cells at 10 uM using DCFH-DA by fluorescence assay relative to control; type: functional
[11] = Solubility of the compound in methanol; type: physicochemical
HT-29 [12] = test: Induction of ROS generation in human HT-29 cells at 10 uM using DCFH-DA by fluorescence assay relative to control; type: functional
[13] = Solubility of the compound in ethyl acetate; type: physicochemical
[14] = Solubility of the compound in acetone; type: physicochemical
[15] = Chemical stability of the compound sodium phosphate buffer at pH 6.8 after 24 hrs by LC-MS analysis; type: physicochemical; details: pH 6.8, 24 h
[16] = Antioxidant activity assessed as DPPH radical scavenging activity after 30 mins by spectrophotometric analysis; type: functional
[17] = Cytotoxicity against human Caco2 cells assessed as decrease in cell viability after 48 hrs by MTT assay; type: functional, cell-based; details: Caco-2, 48 h
[18] = Cytotoxicity against human EAhy926 cells assessed as decrease in cell viability after 48 hrs by MTT assay; type: toxicity, cell-based, EA.hy 926; details: EA.hy926 cells
[19] = Solubility of the compound in dimethyl sulfoxide; type: physicochemical
HT-29 [20] = test: Induction of ROS generation in human HT-29 cells at 1 uM using DCFH-DA by fluorescence assay relative to control; type: functional
[21] = Solubility of the compound in ethanol; type: physicochemical
Caco-2 [22] = test: Induction of ROS generation in human Caco2 cells at 1 uM using DCFH-DA by fluorescence assay relative to control; type: functional
[23] = Aqueous solubility of the compound in sodium phosphate buffer at pH 6.8 after 90 mins by shake flask method; type: physicochemical
[24] = Solubility of the compound in 2-methyl-THF; type: physicochemical
[25] = Induction of ROS generation in CHOK1 cells at 1 uM using DCFH-DA by fluorescence assay relative to control; type: cell-based, Cricetulus griseus; details: chinese hamster, cho-k1, 1 µM
[26] = Cytotoxicity against CHOK1 cells assessed as decrease in cell viability after 48 hrs by MTT assay; type: toxicity, cell-based, Cricetulus griseus; details: Chinese hamster, CHO-K1 cells
HepG2 [27] = test: Induction of ROS generation in human HepG2 cells at 10 uM using DCFH-DA by fluorescence assay relative to control; type: functional

solubility [2]: Soluble | solubility thermodynamic at 24 h [4]: 12.7 µM (≈ 5.4 µg/mL) | Activity [9]: 84.4% | solubility [11]: Soluble | solubility [13]: Insoluble | solubility [14]: Insoluble | Stability [15]: Stable | EC50 [16]: 27.3 µM | solubility [19]: Soluble | solubility [21]: Soluble | solubility thermodynamic at 1.5 h [23]: 16.7 µM (≈ 7.1 µg/mL) | solubility [24]: Insoluble | Activity [25]: 94%
SMILES: COCCNC(=C\C(=O)/C=C/c1ccc(O)c(OC)c1)/C=C/c1ccc(O)c(OC)c1
Activity (EA.hy 926 [1]): 121.3% | IC50 [3]: > 100 µM | IC50 [5]: > 100 µM | Activity (EA.hy 926 [6]): 126.2% | viability at 48 h, 100 µM [7]: 50.9% | Activity (HepG2 [8]): 83.8% | Activity (Caco-2 [10]): 75.6% | Activity (HT-29 [12]): 92.3% | IC50 [17]: > 100 µM | IC50 at 48 h [18]: ≥ 100 µM | Activity (HT-29 [20]): 86.5% | Activity (Caco-2 [22]): 105% | IC50 at 48 h [26]: 63 µM | Activity (HepG2 [27]): 66.6%
